Like-named read-outs stand apart in the source and are kept apart here.
How the values were obtained:
[1] = tested on: Staphylococcus aureus; experiment: Microbicidal activity of the myeloperoxidase system (p-MPO, glucose oxidase, glucose) with amino acids in the presence of blood, CFU plate counts; synergy determination from these CFU; format: cell-based; details: for Average Viability CFU/ml 60 min / Log 10 (CFU + 1) Survivors 60 min / Log Reduction 60 min: MPO 38 U/ml, GO 33.3 U/ml; for Average Viability CFU/ml 50 min / Log Reduction 50 min: MPO 4.7 U/ml, GO 4.2 U/ml
Method: Bacterial suspensions, specifically Staphylococcus aureus in this example, were prepared by the shake flask method to achieve late log to early stationary phase growth. Bacteria were grown 24 hours in trypticase soy broth (TSB) at 35° C. The cultures were centrifuged at 4,000 rpm for 10 minutes and the supernatants removed. The pellet was collected and washed twice with sterile 0.9% normal saline (NS). The washed microorganisms were suspended and diluted with normal saline to a 3 McFarland standard, i.e., approximately 10^9 bacteria colony forming units (CFU) per mL. Actual colony counts are confirmed by serial dilutions (10^−1 to 10^−5 or 10^−6) plated on TSA and incubated overnight at 35° C. To obtain an approximate final working target inoculum of 10^7 CFU/mL, 15 microliters of organisms per mL of final reaction mixture are used.
Glucose oxidase (GO) from Aspergillus Niger was purchased from Biozyme, Inc., UK, Cat #GO3A, 270 U/mg). Porcine Myeloperoxidase (p-MPO) (Exoxemis, Inc., Little Rock, Ark. U.S.A., 375 U/mg). Sterile stock solutions of D-glucose and sodium chloride were prepared and used at a final concentration of 150 mM each. L-Lysine hydrochloride (Spectrum Chemical Cat #L1142) was prepared as a 100 mM stock solution. Catalase (Sigma, Cat #C-40) was prepared as a 1% stock solution in sterile 0.9% normal saline. Blood was collected by venipuncture and used as whole blood within the same day.
Staphylococcus aureus were used to give a final target concentration of 2-3×10^7 CFU (7.4 log 10) per mL and venous whole blood was used to give a final concentration of 3%. Glucose was added to the reaction mixtures to a final concentration of 150 mM, which initiated the microbicidal reaction. The final volume of the reaction mixtures was 1 mL. The reactions were allowed to run from 30 minutes to 2 hours, as needed, at room temperature or at 37° C. in a dry bath. At the specified time points the reaction mixtures were treated with 100 microliters of a catalase solution, containing a minimum of 100 units/μL, to consume remaining peroxide and terminate the oxidative killing. Serial dilution plate counts were performed from the contents of each vial in sterile saline and inoculated onto trypticase soy agar (TSA) for quantitative culture. Plates were then incubated at 37° C. and counts taken at 24 hours. […] The results are shown in Table 1, as the average of 2 replicates.
The amino acids alone, in the absence of MPO were tested to rule out their microbicidal activity. The results are shown in Table 2 to Table 6, as the average of 2 replicates.
The amino acid analogues alone, in the absence of MPO, were tested to rule out their microbicidal activity. […]
The effect of two-way combinations of individual amino acids with L-isoleucine, as potential enhancing agents, for MPO microbicidal action in the presence of blood, was therefore examined by following the procedure of Example 5.
The Actual CFU observed for the pair is then divided by the Predicted CFU and multiplied by 100 to calculate the % of Predicted value. This value is then to be compared to the threshold value, discussed in the next section, to determine whether the pair are synergistic, antagonistic, or additive.
Calculation of appropriate threshold values for determination of synergism and antagonism was based upon the variability of replicated CFU survivor measures.

[2] = tested on: Staphylococcus aureus; experiment: Control: microbicidal activity of the amino acid or analogue alone (no glucose, MPO, glucose oxidase) in the presence of blood; format: cell-based; details: for log reduction at 5000 µM: Staphylococcus aureus, 1 h, read-out: Log Reduction 60 min
Excerpt: As a control to determine the microbicidal activity of the amino acids alone, the foregoing procedure was followed without replication, except in the absence of glucose, MPO, and glucose oxidase.

[3] = Table 2, amino acid 5 mM (none: 0 mM), blood
[4] = amino acid alone 5 mM, MPO 0, GO 0, no glucose, blood, without replication
[5] = MPO 100 μg/mL, AA 20 mM, 30 min
[6] = MPO 100 μg/mL, AA 20 mM, 60 min
[7] = Table 10, single amino acid 2.5 mM, in the presence of blood, 50 min
[8] = Table 19, amino acid (racemic, L- or D-form) 2.5 mM, 50 min
[9] = single amino acid 2.5 mM, blood
[10] = Table 5, amino acid 5 mM (none: 0 mM), blood
[11] = Table 7, amino acid analogue 5 mM, blood
[12] = Table 4, amino acid 5 mM (none: 0 mM), blood
[13] = Table 11, single amino acid 2.5 mM, in the presence of blood, 50 min
[14] = Table 13, single amino acid 2.5 mM, in the presence of blood, 50 min
[15] = Table 14, single amino acid 2.5 mM, in the presence of blood, 50 min

Structure (SMILES)	Average Viability CFU/ml 60 min [1, 3] [CFU/ml]	Log 10 (CFU + 1) Survivors 60 min [1, 3]	Log Reduction 60 min [1, 3]	log reduction at 5000 µM [2, 4]	Average Viability CFU/ml 60 min [2, 4] [CFU/ml]	Log 10 (CFU + 1) Survivors ([1]; MPO 25 μg/mL, AA 5 mM, 30 min)	Log 10 (CFU + 1) Survivors ([1]; MPO 25 μg/mL, AA 5 mM, 60 min)	Log 10 (CFU + 1) Survivors ([1]; MPO 25 μg/mL, AA […], 30 min)	Log 10 (CFU + 1) Survivors ([1]; MPO 25 μg/mL, AA […], 60 min)	Log 10 (CFU + 1) Survivors ([1]; MPO 100 μg/mL, AA 5 mM, 30 min)	Log 10 (CFU + 1) Survivors ([1]; MPO 100 μg/mL, AA 5 mM, 60 min)	Log 10 (CFU + 1) Survivors [1, 5]	Log 10 (CFU + 1) Survivors [1, 6]	Average Viability CFU/ml 50 min [1, 7] [CFU/ml]	Log Reduction 50 min [1, 7]	Average Viability CFU/ml 50 min [1, 8] [CFU/ml]	Log Reduction 50 min [1, 8]	further results
N[C@@H](CS)C(=O)O [L-Cysteine]	17400000	7.2	0.1	0	22400000	–	–	–	–	–	–	–	–	–	–	–	–	–
CC(C)[C@H](N)C(=O)O [L-Valine]	0	0.0	7.4	0	23100000	4.7	0.0	4.8	0.0	0.0	0.0	0.0	0.0	104500	2.4	104500	2.4	Average Viability CFU/ml 50 min [1, 9]: 104500 CFU/ml; Log Reduction 50 min [1, 9]: 2.4
N[C@H](Cc1ccc(O)cc1)C(=O)O [D-Tyrosine]	–	–	–	0	23200000	6.8	5.9	6.7	7.0	6.7	5.0	5.8	0.0	1320000	1.3	–	–	Average Viability CFU/ml 60 min [1, 10]: 9400 CFU/ml; Log Reduction 60 min [1, 10]: 3.4
COC(=O)[C@@H](N)CCCCN.Cl.Cl [L-Lysine methyl ester dihydrochloride]	–	–	–	–	–	–	–	–	–	–	–	–	–	–	–	–	–	Average Viability CFU/ml 60 min [1, 11]: 0 CFU/ml; Log Reduction 60 min [1, 11]: 7.4; log reduction at 5000 µM [2]: 0; Average Viability CFU/ml 60 min ([2]; amino acid analogue alone 5 mM, MPO 0, GO 0, no glucose, blood): 21500000 CFU/ml
CC(C)C[C@@H](N)C(=O)O [D-Leucine]	–	–	–	0	24400000	3.8	2.2	6.7	2.1	2.7	2.0	1.8	1.9	–	–	215000	2.1	Average Viability CFU/ml 60 min [1, 12]: 66550 CFU/ml; Log Reduction 60 min [1, 12]: 2.6; Average Viability CFU/ml 50 min [1, 13]: 313000 CFU/ml; Log Reduction 50 min [1, 13]: 1.9; Average Viability CFU/ml 50 min [1, 14]: 119000 CFU/ml; Log Reduction 50 min [1, 14]: 2.3; Average Viability CFU/ml 50 min [1, 15]: 163500 CFU/ml; Log Reduction 50 min [1, 15]: 2.2

— US8945540B2, “Compositions for enhancing the antibacterial activity of myeloperoxidase and methods of use thereof” (Exoxemis, Inc., priority 2008, dated 2015)
